In patent EP0526936A2, “Cholesterol-lowering agents” (MERCK & CO. INC., priority 1991, dated 1993):

Assays:
squalene synthase [1] = target: T1, squalene synthase (Saccharomyces cerevisiae, UniProt P29704); assay: Squalene synthase assay, yeast enzyme; format: biochemical, S. cerevisiae W303-1A; settings: yeast enzyme preparation; 12 min preincubation, 12 min reaction at 30 °C; read-out: Squalene Synthase Inhibition IC50 Yeast Enzyme (converted)
T1 construct: The pellet fractions were suspended at 10-20 mg/ml protein in breakage buffer containing 25% glycerol; endogenous in cells; host or cells: S. cerevisiae W303-1A
T1 sequence (P29704 1-444): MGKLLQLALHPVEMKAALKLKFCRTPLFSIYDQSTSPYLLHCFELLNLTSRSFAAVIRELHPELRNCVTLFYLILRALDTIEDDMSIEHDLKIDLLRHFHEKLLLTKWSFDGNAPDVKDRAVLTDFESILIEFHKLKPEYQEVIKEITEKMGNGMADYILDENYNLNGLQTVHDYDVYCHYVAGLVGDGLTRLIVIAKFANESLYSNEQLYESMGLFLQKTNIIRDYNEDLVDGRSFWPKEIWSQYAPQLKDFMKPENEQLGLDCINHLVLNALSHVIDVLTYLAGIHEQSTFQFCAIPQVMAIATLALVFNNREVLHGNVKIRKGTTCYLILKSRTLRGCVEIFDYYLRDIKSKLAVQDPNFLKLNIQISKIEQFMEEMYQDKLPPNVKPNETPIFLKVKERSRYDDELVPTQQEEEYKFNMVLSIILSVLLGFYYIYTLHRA
Protocol: (§1) The intrinsic squalene synthase inhibitory activity of representative compounds of this invention was measured by the standard in vitro protocol described below:
S. cerevisiae W303-1A (MATa ade2-1 canl-100 his3-11,15 leu2-3,112 trp1-1 ura3-1) was grown at 30 ° C for 24 hours in YPD medium ([…], 2% glucose) supplemented with 20 µg/mL adenine. The cells were washed and resuspended in a minimal volume of breakage buffer (100 mM KP04, pH 7.4, 3 mM DTT, 1 mM PMSF). The cells were added to the small chamber of the Bead-Beater Cell Disrupter (Biospec Products, Bartlesville, OK) containing 100 g of 0.5 mm glass beads. Buffer was added to fill the chamber. The sealed chamber was packed in ice and processed for 4 cycles of 30 sec with 2 min. cooling between cycles. Cell breakage was determined to be >90% by phase-contrast microscopy. The glass beads were removed by Whatman filter paper and the filtrate collected into an ice- immersed filter flask. The extract was centrifuged at 1500 x g for 10 min at 4°C. The pellet (P1) containing unbroken cells and cell walls was discarded. The supernatant (S1) was centrifuged at 30000 x g for 30 min at 4°C. The pellet (P2) contained about two-thirds of the total squalene synthase activity. The supernatant (S2) can be centrifuged at 100,000 x g for 60 min at 4°C to pellet the remaining activity (P3). The pellet fractions were suspended at 10-20 mg/ml protein in breakage buffer containing 25% glycerol. The activity was stable for several months at -80 ° C.
(§2) Reactions were performed in 1.2 mL polypropylene tube strips of eight. […] The reaction product was extracted with 0.4 mL heptane containing 0.4 µL carrier squalene 0.2 mL of the heptane extract was counted by liquid scintillation. […]
(§3) Percent inhibition is calculated by the formula: [formula]
lC50 values were determined by plotting the log of the concentration of the test compound versus the percentage inhibition. […]

squalene synthase [2] = target: T2, squalene synthase (Homo sapiens, UniProt P37268); assay: Squalene synthase assay, HepG2 cell enzyme; format: biochemical; settings: HepG2 enzyme preparation; 12 min preincubation, 12 min reaction at 30 °C; read-out: Squalene Synthase Inhibition IC50 HepG2 Enzyme (converted)
T2 construct: The HepG2 enzyme preparation was centrifuged at 34,000 rpm to separate the cytosol and microsomal enzymes; host or cells: HepG2
T2 sequence (P37268 1-417): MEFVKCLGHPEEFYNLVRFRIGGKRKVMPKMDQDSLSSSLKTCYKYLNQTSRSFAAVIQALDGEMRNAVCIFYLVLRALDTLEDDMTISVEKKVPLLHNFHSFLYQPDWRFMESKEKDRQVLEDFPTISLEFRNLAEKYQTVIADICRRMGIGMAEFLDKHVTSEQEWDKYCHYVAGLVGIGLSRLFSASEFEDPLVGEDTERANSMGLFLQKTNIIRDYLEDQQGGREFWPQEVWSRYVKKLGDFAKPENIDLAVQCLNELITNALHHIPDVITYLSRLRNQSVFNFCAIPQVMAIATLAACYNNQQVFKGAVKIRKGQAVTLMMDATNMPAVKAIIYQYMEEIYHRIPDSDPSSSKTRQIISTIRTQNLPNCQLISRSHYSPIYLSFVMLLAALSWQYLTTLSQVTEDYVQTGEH
Protocol: as §1
1. SOURCE: HEPG2 CELL LINE (Liver, hepatoblastoma, Human) ATCC No. HB 8065
Culture Medium: Minimum essential medium (MEM) with non-essential amino acids, sodium pyruvate, and 10% fetal bovine serum. The medium was changed twice weekly. […] The growth medium was prepared as listed below.
SUBCULTURE PROCEDURE: The medium was removed and washed with PBS (Phosphate-Buffered Saline 15.6 mM, pH 7.0). Fresh trypsin (0.25%)-EDTA (0.02%) with Hank's Balanced Salt solution was added and the flask was allowed to stand for a minute before the trypsin solution was removed. The flask was incubated at 370 C until cells detached. Fresh medium was added and the cells were dispersed and dispensed into new flasks. Subcultivation ratio: 1:6.
PREPARATION OF DELIPIDATED SERUM: Fetal calf serum (100 ml) and CAB-O-Sil (2 grams) were stirred overnight at 4°C and centrifuged at 16,000 rpm for 5 hrs. The supernantant was filtered and the serum was stored at 4 C.
48 hrs. prior to harvest, cells grown in MEM with 10% Fetal Calf serum were switched to MEM with 10% delipidated serum.
HARVEST: The medium was removed and the cells were washed with PBS. Fresh trypsin (0.25%)-EDTA (0.02%) with Hanks' Balanced Salt solution was added and allowed to stand and removed. The flask was incubated at 37 C until the cells detached. MEM medium (6 mL/flask) was added to suspend cells and combined into a centrifuge tube. […] Cells were counted ([…] yield from 18 flasks (75 cm^2)), and resuspended in 10 mL of 50mM HEPES (N-[2-Hydroxyethyl]piperazine-N'-[2-ethane-sulfonic acid]) containing 5mM MgCI2, 2mM MnCI2, 10mM DTT, pH 7.5 (enzyme suspension buffer). […]
as §2
Percent inhibition is calculated by the formula: [formula] […]

Farnesyl Transferase = Farnesyl Transferase (Homo sapiens, UniProt P49356); assay: Farnesyl-transferase assay (inhibition of Ras farnesylation in vitro); format: biochemical; settings: ras-CVLS 3 μM, 60 min at room temperature
Protocol: FARNESYL-TRANSFERASE ASSAY
100 µL of 0.5 M DTT was added to 900 µL of 1.1 M HEPES, pH 7.5 and 55.5 mM MgCl2 to yield a 10X buffer consisting of 1.0 M HEPES, pH 7.5, 50 mM MgCl2 and 50 mM DTT.
The reaction mix was prepared as below:
A Blank reaction mix was also prepared with the negative control ras-protein, and the Total/Sample reaction mix received the ras-CVLS. The same volumes were used to prepare the Blank reaction mix as those in Table 1.
The farnesyl trasferase solution was prepared as shown below. The farnesyl transferase mix was prepared right before use.
• i. The assay volume was 100 µL, the volume of sample to be tested was 5 µL and the time of incubation is 60 min at room temperature. • ii. The TECAN 8000/505, an automatic pipetting station, added 50 µL of water plus 5 µL of sample to the assay tubes. • iii. The ras-CVLS reaction mix (20 µL) was manually added to totals and unknowns. The negative control ras-protein reaction mix (20 µL) was manually added to the blank tubes. • iv. The farnesyl transferase mix (25 µL) was manually added to all tubes to initiate the reaction and the assay tubes were kept at room temperature for 60 min. • v. The assay was stopped placing the assay tubes in an ice bath for 5 minutes. • vi. 1.0 mL of 1.0 M HCI in 100% ethanol was then added to each tube. The assay tubes (uncapped) were incubated at 37 ° C for 60 min. to facilitate the hydrolysis of the FPP. • vii. Assay tubes were harvested through a TOMTEC 96-well harvestor (6 x 16 with extended tips, or SKATRON cell harvestor) onto LKB double thickness filter mats. • viii. The cell harvestor was adjusted so that each well was washed with 10 mL of 100% ethanol. • ix. Filter mats were baked in microwave oven for 6-8 min. to dry the filtermats. • x. The filter mats were placed in counting bags, 30 mL of LKB ,8-scint cocktail was added and the filter mats were counted for 120 sec. in the LKB β-plate counter.
Percent inhibition was calculated according to the following equation: [formula] […]

squalene synthase [3] = target: T3, squalene synthase (Rattus norvegicus, UniProt Q02769); assay: Squalene synthase assay, rat liver microsomes; format: biochemical, rats; settings: [4-14C]farnesyl-pyrophosphate, 20 minutes at 30 °C
T3 construct: from tissue; host or cells: liver microsomes of male Charles River CD rats fed 0.1% lovastatin
T3 sequence (Q02769 1-416): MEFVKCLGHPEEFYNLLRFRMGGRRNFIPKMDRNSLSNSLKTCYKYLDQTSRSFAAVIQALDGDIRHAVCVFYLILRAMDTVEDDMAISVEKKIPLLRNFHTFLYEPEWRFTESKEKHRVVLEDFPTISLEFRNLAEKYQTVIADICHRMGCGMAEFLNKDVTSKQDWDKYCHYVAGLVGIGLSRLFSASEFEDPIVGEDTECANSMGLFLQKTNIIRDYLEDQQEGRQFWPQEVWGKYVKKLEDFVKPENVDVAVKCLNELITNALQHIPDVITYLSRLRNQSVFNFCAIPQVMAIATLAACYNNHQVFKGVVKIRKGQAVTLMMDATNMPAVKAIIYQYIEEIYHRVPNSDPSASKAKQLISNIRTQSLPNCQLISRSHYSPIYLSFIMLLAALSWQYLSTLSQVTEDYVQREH
Protocol: Alternatively, the intrinsic squalene synthase inhibitory activity of the compounds formed in the fermentation of the microorganisms of the present invention may be measured by the standard in vitro protocol described below:
Male, CHARLES RIVER@ CD rats (120 to 150 g) were fed a diet containing 0.1% lovastatin for 4 days. The livers from these rats were homogenized in 5 volumes (mL/g) of ice cold 50 mM HEPES (4-(2-hydroxyethyl)-1-piperazine-ethanesulfonic acid), 5 mM EDTA(ethylenediaminetetraacetic acid) pH 7.5 with a Potter-Elvehjem type tissue grinder. The homogenate was centrifuged twice at 20,000 x g for 15 min. at 4°C, discarding the pellet each time. The supernatant was then centrifuged at 100,000 x g for 1 hr at 4°C. The resulting microsomal pellet was resuspended in a volume of the above homogenizing buffer equal to one-fifth the volume of the original homogenate. This microsomal preparation has a protein concentration of about 7 mg/mL. The microsomal suspensions were stored in aliquots at -70 °C. Squalene synthase activity in these aliquots is stable for a least several months. […]
This assay mix was degassed under a vacuum and flushed with N2. […] Ten mL of scintillation fluid was added to the heptane solution and radioactivity was determined by liquid scintillation counting.
as §3

Row | IC50 (squalene synthase [1]) [µM] | IC50 (squalene synthase [2]) [µM] | IC50 (Farnesyl Transferase) [µM] | IC50 (squalene synthase [3]) [µM] | Compound
1 | 1.74 | 33.5 | 4.5 | – | CCCCCCCC(=O)CCCCCC/C=C/C(C(=O)NC(Cc1ccccc1)C(=O)O)C(O)(CC(=O)O)C(=O)O (stereo not shown) [Compound C]
2 | 0.358 | 0.472 | 3.3 | – | CCCCCCCC(=O)CCCCCC/C=C/C(C(=O)NC(Cc1c[nH]c2ccccc12)C(=O)O)C(O)(CC(=O)O)C(=O)O (stereo not shown) [Compound D]
3 | 12.7 | 70.3 | 8 | 15 | CCCCCCCC(=O)CCCCCC/C=C/C(C(=O)NC(Cc1ccc(O)cc1)C(=O)O)C(O)(CC(=O)O)C(=O)O (stereo not shown) [Compound A]
